# Test results reported in publication PMC9217978, “Design, synthesis, in vitro α-glucosidase inhibition, docking, and molecular dynamics of new phthalimide-benzenesulfonamide hybrids for targeting type 2 diabetes” (Scientific Reports, 2022).
# Like-named read-outs stand apart in the source and are kept apart here.
# What was measured:
# α-glucosidase = details: read-out: IC50 against α-glucosidase, cited from earlier work
# yeast α-glucosidase = yeast α-glucosidase (Saccharomyces cerevisiae, UniProt P53341); experiment: biochemical; assay type: biochemical; details: for α-glucosidase inhibitory activity, in words: SAR discussion; for IC50: read-out: IC50 (μM), in vitro α-glucosidase inhibitory activity
# Source text: On the other hand, there are phenyl, 4-methylphenyl, and or 4-methoxyphenyl groups in the benzenesulfonamide moiety.
# α-amylase = target: T1, α-amylase (Homo sapiens, UniProt P04746); experiment: In vitro α-amylase inhibition assay; assay type: biochemical; details: at 300 μM
# T1 sequence (P04746 16-511): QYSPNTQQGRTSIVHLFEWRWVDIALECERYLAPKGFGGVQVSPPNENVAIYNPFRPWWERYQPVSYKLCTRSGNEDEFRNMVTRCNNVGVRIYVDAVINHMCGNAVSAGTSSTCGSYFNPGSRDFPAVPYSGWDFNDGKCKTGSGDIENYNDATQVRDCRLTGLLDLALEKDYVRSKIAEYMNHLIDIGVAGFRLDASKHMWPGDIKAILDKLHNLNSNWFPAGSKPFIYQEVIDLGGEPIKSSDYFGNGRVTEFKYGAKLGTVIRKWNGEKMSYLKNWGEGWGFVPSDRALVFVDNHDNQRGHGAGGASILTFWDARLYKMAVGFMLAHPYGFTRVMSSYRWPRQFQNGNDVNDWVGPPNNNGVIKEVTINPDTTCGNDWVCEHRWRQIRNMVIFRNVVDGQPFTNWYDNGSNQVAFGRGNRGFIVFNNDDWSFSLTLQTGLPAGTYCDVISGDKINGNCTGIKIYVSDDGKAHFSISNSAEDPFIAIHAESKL
# Chain of yeast α-glucosidase (P53341 whole entry): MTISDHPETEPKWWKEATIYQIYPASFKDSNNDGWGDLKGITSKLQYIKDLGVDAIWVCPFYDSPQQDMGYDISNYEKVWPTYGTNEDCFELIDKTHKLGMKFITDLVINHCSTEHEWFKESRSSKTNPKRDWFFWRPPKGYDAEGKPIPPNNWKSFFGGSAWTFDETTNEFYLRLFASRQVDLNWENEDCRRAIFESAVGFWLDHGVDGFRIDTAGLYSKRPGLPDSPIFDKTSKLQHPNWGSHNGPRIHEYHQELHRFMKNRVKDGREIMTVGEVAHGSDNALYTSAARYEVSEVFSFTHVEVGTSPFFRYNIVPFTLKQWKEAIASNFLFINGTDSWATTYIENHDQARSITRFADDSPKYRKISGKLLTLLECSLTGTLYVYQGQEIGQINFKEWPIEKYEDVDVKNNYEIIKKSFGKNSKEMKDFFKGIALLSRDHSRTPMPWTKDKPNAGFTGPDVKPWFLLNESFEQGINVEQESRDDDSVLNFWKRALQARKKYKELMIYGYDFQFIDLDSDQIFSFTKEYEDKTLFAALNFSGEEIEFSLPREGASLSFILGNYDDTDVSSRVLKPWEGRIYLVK
SMILES,melting point,"α-glucosidase inhibitory activity, in words (yeast α-glucosidase)",IC50 (yeast α-glucosidase),other results
O=C1c2ccccc2C(=O)N1CCCOc1ccc(Cl)c(Cl)c1 [A],,,,"IC50 (α-glucosidase; Fig. 2, phthalimide derivative A study): 7.55 µM"
Cc1ccc(S(=O)(=O)Nc2ccc3c(c2)C(=O)N(CCOc2ccc(O)cc2)C3=O)cc1 [B],,,,"IC50 (α-glucosidase; Fig. 2, phthalimide-benzenesulfonamid B study): 25.5 µM"
"O=C1c2ccccc2C(=O)N1CCC(=NS(=O)(=O)c1ccccc1)N1CCCCC1 [Compound 4a, N-(3-(1,3-Dioxoisoindolin-2-yl)-1-(piperidin-1-yl)propylidene)benzenesulfonamide]",158 to 160 °C,inactive,,
"Cc1ccc(S(=O)(=O)N=C(CCN2C(=O)c3ccccc3C2=O)N2CCCCC2)cc1 [Compound 4b, N-(3-(1,3-Dioxoisoindolin-2-yl)-1-(piperidin-1-yl)propylidene)-4-methylbenzenesulfonamide]",198 to 200 °C,high inhibitory activity,127.24 ± 0.1 µM,
"COc1ccc(S(=O)(=O)N=C(CCN2C(=O)c3ccccc3C2=O)N2CCCCC2)cc1 [Compound 4c, N-(3-(1,3-dioxoisoindolin-2-yl)-1-(piperidin-1-yl)propylidene)-4-methoxybenzenesulfonamide]",146 to 148 °C,good anti-α-glucosidase activity,200.29 ± 0.1 µM,
"O=C1c2ccccc2C(=O)N1CCC(=NS(=O)(=O)c1ccccc1)N1CCOCC1 [Compound 4d, N-(3-(1,3-dioxoisoindolin-2-yl)-1-morpholinopropylidene)benzenesulfonamide]",168 to 170 °C,inactive,,
"Cc1ccc(S(=O)(=O)N=C(CCN2C(=O)c3ccccc3C2=O)N2CCOCC2)cc1 [Compound 4e, N-(3-(1,3-Dioxoisoindolin-2-yl)-1-morpholinopropylidene)-4-methylbenzenesulfonamide]",204 to 206 °C,high inhibitory activity,117 ± 0.14 µM,inhibition effect against α-amylase (α-amylase): no inhibition effect
"COc1ccc(S(=O)(=O)N=C(CCN2C(=O)c3ccccc3C2=O)N2CCOCC2)cc1 [Compound 4f, N-(3-(1,3-Dioxoisoindolin-2-yl)-1-morpholinopropylidene)-4-methoxybenzenesulfonamide]",172 to 174 °C,,,
"O=C1c2ccccc2C(=O)N1CCC(=NS(=O)(=O)c1ccccc1)N(c1ccccc1)c1ccccc1 [Compound 4g, 3-(1,3-Dioxoisoindolin-2-yl)-N,N-diphenyl-N'-(phenylsulfonyl)propanimidamide]",202 to 204 °C,moderate inhibitory activity,478 ± 0.07 µM,
"Cc1ccc(S(=O)(=O)N=C(CCN2C(=O)c3ccccc3C2=O)N(c2ccccc2)c2ccccc2)cc1 [Compound 4h, 3-(1–3-Dioxoisoindolin-2-yl)-N,N-diphenyl-N’-tosylpropanimidamide]",202 to 204 °C,moderate α-glucosidase inhibitors,497 ± 0.25 µM,
"O=C1c2ccccc2C(=O)N1CCC(=NS(=O)(=O)c1ccccc1)N1CCC(Cc2ccccc2)CC1 [Compound 4i, N-(1-(4-benzylpiperidin-1-yl)-3-(1,3-dioxoisoindolin-2-yl)propylidene)benzenesulfonamide]",,high inhibitory activity,84.3 ± 0.4 µM,
COc1ccc(S(=O)(=O)N=C(CCN2C(=O)c3ccccc3C2=O)N2CCC(Cc3ccccc3)CC2)cc1 [Compound 4k],,inactive,,
"O=C1c2ccccc2C(=O)N1CCC(=NS(=O)(=O)c1ccccc1)N1CCN(c2ccccc2)CC1 [Compound 4l, N-(3-(1,3-dioxoisoindolin-2-yl)-1-(4-phenylpiperazin-1-yl)propylidene)benzenesulfonamide]",160 to 164 °C,,,
NS(=O)(=O)c1ccc(N/N=C/c2coc3ccccc3c2=O)cc1 [D],,,,"IC50 (α-glucosidase; Fig. 2, chromone-benzenesulfonamid D study): 20.1 µM"
O=C(N/N=C/c1ccc(OCCCN2C(=O)c3ccccc3C2=O)cc1)c1cc2ccccc2oc1=O [E],,,,"IC50 (α-glucosidase; Fig. 2, phthalimide-coumarin E study): 85.2 µM"
